Test system: patient with headache (CSF pressures 13-14 cmW)
Experiment: Case report (Example 1): one patient with 10 years of headache and normal CSF pressure, treated by CSF removal via lumbar puncture and then Diamox
Format: in vivo, human
Method: Therefore more CSF was drained 10 ml total. […] For example triptans may be combined with Diamox or diuretics, triptans may be combined with NSAM or Lumbar puncture, shunts or intraocular drainage procedures may be use singularly or together.

SMILES | postdural puncture headache (PDPH) while on treatment (3 days after LP with 10 ml CSF drained and start of Diamox, PDPH lost on brief discontinuation) | usual headache after being placed on Diamox (after removal of 10 ml CSF by LP, 3 days later) | symptom status on maintenance treatment (low dose Diamox, after CSF removal) | response of the major headache component to medication (10 years of headache, before CSF removal)
CC(=O)Nc1nnc(S(N)(=O)=O)s1 [Diamox, acetazolamide] | developed postdurai puncture headache | total absence of their usual headache | symptom free | –
CC1(C)O[C@@H]2[C@@H](CO[C@@]3(COS(N)(=O)=O)OC(C)(C)O[C@@H]23)O1 [Topamax, topiramate] | – | – | – | refractory to treatment

From US9320733B2, “Assessment and modulation of cerebrospinal fluid for head pain” (priority 2010, dated 2016)
